# Several values for one entry are separate records, joined by “and”; a condition that tells them apart may be missing. Equal values may be shown once.
# Assay: Radiolysis / stability of [18F]DCFPyL over time by HPLC with radiodetection (RCP, free 18F, radioactive impurities)
# Type: physicochemical
# Experimental: Those of ordinary skill in the art will be aware of techniques and systems for determining the radiochemical purity of a composition. In some cases, the radiochemical purity is determined using an HPLC associated with a radio-detector. Generally, the radiochemical purity is determined under ambient conditions (e.g., ambient temperature, ambient humidity, ambient light, etc.), such as in samples stored under such conditions.
# Stability was assessed using reverse phase HPLC on a C18 column with a phosphate buffer/acetonitrile gradient mobile phase, and the elution profile was monitored using both UV and radiochemical detectors. Samples were analyzed either by direct injection onto the HPLC, dilution and injection or including the addition of tetraethylammonium fluoride (TEAF) into the sample before injection.
# Known amounts of free ^18F either alone or spiked with TEAF were injected onto the analytic column and the eluent from the column collected over the course of a chromatogram and assaying the radioactivity using a Capintec. […] Adding TEAF into the analytic samples was incorporated into subsequent studies examining potential radiolysis of [^18F]DCFPyL to overcome some of the limitations of free ^18F quantification.
# Analytical HPLC method was used. The method employs UV detection at 264 nm for chemical impurities, and an Eckert & Ziegler model B-FC-1000 gamma detector for radiochemical assays.
# [1] = 110 mCi/mL in 50 mg/mL pH 5.8 ascorbic acid, T = 3.0 h
# [2] = 110 mCi/mL in 50 mg/mL pH 5.8 ascorbic acid, T = 3.5 h
# [3] = 110 mCi/mL in 50 mg/mL pH 5.8 ascorbic acid, T = 4.0 h
# [4] = 147 mCi/mL in 0.9% Sodium Chloride, USP, no ascorbic acid, T = 0 h
# [5] = 147 mCi/mL in 0.9% Sodium Chloride, USP, no ascorbic acid, T = 0.5 h
# [6] = 147 mCi/mL in 0.9% Sodium Chloride, USP, no ascorbic acid, T = 1.0 h
# [7] = 147 mCi/mL in 0.9% Sodium Chloride, USP, no ascorbic acid, T = 1.5 h
# [8] = 147 mCi/mL in 0.9% Sodium Chloride, USP, no ascorbic acid, T = 2.0 h
# [9] = 147 mCi/mL in 0.9% Sodium Chloride, USP, no ascorbic acid, T = 2.5 h
# [10] = 147 mCi/mL in 0.9% Sodium Chloride, USP, no ascorbic acid, T = 3.0 h
# [11] = 147 mCi/mL in 0.9% Sodium Chloride, USP, no ascorbic acid, T = 3.5 h
# [12] = 147 mCi/mL in 0.9% Sodium Chloride, USP, no ascorbic acid, T = 4.0 h
# [13] = T = 0/1, 50 mg/mL ascorbic acid pH 5.8, 20% ethanol, 106.5 mCi/mL at EOS
# [14] = T = 0, 0.5 mg/mL ascorbic acid pH 5.8, 20% ethanol, 105.8 mCi/mL at EOS
# [15] = T = 0, 1 mg/mL ascorbic acid pH 5.8, 20% ethanol, 107.0 mCi/mL at EOS
# [16] = T = 0, 5 mg/mL ascorbic acid pH 5.8, 20% ethanol, 99.0 mCi/mL at EOS
# [17] = T = 0, 20 mg/mL sodium citrate, 20% ethanol, 104.8 mCi/mL at EOS, MPA = 0.25% of main peak
# [18] = T = 0, 50 mg/mL ascorbic acid pH 5.8, 20% ethanol, 139.7 mCi/mL at EOS
# [19] = T = 0 hr, 50 mg/mL ascorbic acid pH 5.8 in final product vial, 20% ethanol, 110 mCi/mL at EOS
# [20] = T = 0 hr, 100 mg/mL ascorbic acid pH 2.0, 256 mCi/mL at EOS
# [21] = T = 0 hr, 20% ethanol in saline, 52 mCi/mL at EOS
# [22] = T = 0 hr, 20% ethanol in saline, 65 mCi/mL at EOS
# [23] = T = 0 hr, 20% ethanol in saline, 85 mCi/mL at EOS
# [24] = T = 0 hr, 100% ethanol, 325 mCi/mL at EOS
# [25] = T = 0 hr, control without ascorbic acid, 36% ethanol in saline, 147 mCi/mL at EOS
# [26] = T = 3, 50 mg/mL ascorbic acid pH 5.8, 20% ethanol, 106.5 mCi/mL at EOS
# [27] = T = 4, 50 mg/mL ascorbic acid pH 5.8, 20% ethanol, 106.5 mCi/mL at EOS
# [28] = T = 6, 50 mg/mL ascorbic acid pH 5.8, 20% ethanol, 106.5 mCi/mL at EOS
smiles,measurement,setting,value
"O=C(O)CC[C@H](NC(=O)N[C@@H](CCCCNC(=O)c1ccc([18F])nc1)C(=O)O)C(=O)O [Lot 18F-DCFPyL, 2-(3-{1-carboxy-5-[(6-[18F]fluoro-pyridine-3-carbonyl)-amino]-pentyl}ureido)-pentanedioic acid]",free 18F accumulating over 4 hrs,"50 mg/mL ascorbic acid pH 5.8, 20% ethanol, 111 mCi/mL at EOS",0.26%
same,free 18F accumulating over 4 hrs,"100 mg/mL ascorbic acid pH 2.0, 256 mCi/mL at EOS",0.08%
same,18F-DCFPyL,"110 mCi/mL in 50 mg/mL pH 5.8 ascorbic acid, T = 0 h",99.73 area %
same,18F-DCFPyL,"110 mCi/mL in 50 mg/mL pH 5.8 ascorbic acid, T = 0.5 h",99.72 area %
same,18F-DCFPyL,"110 mCi/mL in 50 mg/mL pH 5.8 ascorbic acid, T = 1.0 h",96.74 area %
same,18F-DCFPyL,"110 mCi/mL in 50 mg/mL pH 5.8 ascorbic acid, T = 1.5 h",99.66 area %
same,18F-DCFPyL,"110 mCi/mL in 50 mg/mL pH 5.8 ascorbic acid, T = 2.0 h",99.76 area %
same,18F-DCFPyL,"110 mCi/mL in 50 mg/mL pH 5.8 ascorbic acid, T = 2.5 h",99.66 area %
same,18F-DCFPyL,[1],99.30 area %
same,Free 18F,[1],0.35 area %
same,18F-DCFPyL,[2],99.46 area %
same,Free 18F,[2],0.24 area %
same,18F-DCFPyL,[3],99.43 area %
same,Free 18F,[3],0.26 area %
same,18F-DCFPyL,[4],94.17 area %
same,Free 18F,[4],4.68 area %
same,18F-DCFPyL,[5],90.65 area %
same,Free 18F,[5],7.73 area %
same,18F-DCFPyL,[6],90.71 area %
same,Free 18F,[6],7.69 area %
same,18F-DCFPyL,[7],89.59 area %
same,Free 18F,[7],8.78 area %
same,18F-DCFPyL,[8],89.50 area %
same,Free 18F,[8],8.67 area %
same,18F-DCFPyL,[9],88.79 area %
same,Free 18F,[9],9.66 area %
same,18F-DCFPyL,[10],88.94 area %
same,Free 18F,[10],9.49 area %
same,18F-DCFPyL,[11],88.90 area %
same,Free 18F,[11],9.56 area %
same,18F-DCFPyL,[12],89.06 area %
same,Free 18F,[12],9.27 area %
same,Free 18F,"256 mCi/mL in ethanol, ascorbic acid in process, T = 0 h",0.29 area %
same,Free 18F,"256 mCi/mL in ethanol, ascorbic acid in process, T = 0.5 h",0.40 area %
same,Free 18F,"256 mCi/mL in ethanol, ascorbic acid in process, T = 1.0 h",0.31 area %
same,Free 18F,"256 mCi/mL in ethanol, ascorbic acid in process, T = 1.5 h",0.31 area %
same,Free 18F,"256 mCi/mL in ethanol, ascorbic acid in process, T = 2.0 h",0.31 area %
same,Free 18F,"256 mCi/mL in ethanol, ascorbic acid in process, T = 2.5 h",0.31 area %
same,Free 18F,"256 mCi/mL in ethanol, ascorbic acid in process, T = 3.0 h",0.29 area %
same,Free 18F,"256 mCi/mL in ethanol, ascorbic acid in process, T = 3.5 h",0.42 area %
same,Free 18F,"256 mCi/mL in ethanol, ascorbic acid in process, T = 4.0 h",0.40 area %
same,18F-DCFPyL,"256 mCi/mL in ethanol, 100 mg/mL pH 2.0 ascorbic acid in collection vial and HLB wash, T = 0 h",99.71 area %
same,18F-DCFPyL,"256 mCi/mL in ethanol, 100 mg/mL pH 2.0 ascorbic acid in collection vial and HLB wash, T = 0.5 h",99.60 area %
same,18F-DCFPyL,"256 mCi/mL in ethanol, 100 mg/mL pH 2.0 ascorbic acid in collection vial and HLB wash, T = 1.0 h",98.68 area %
same,18F-DCFPyL,"256 mCi/mL in ethanol, 100 mg/mL pH 2.0 ascorbic acid in collection vial and HLB wash, T = 1.5 h",98.58 area %
same,18F-DCFPyL,"256 mCi/mL in ethanol, 100 mg/mL pH 2.0 ascorbic acid in collection vial and HLB wash, T = 2.0 h",98.20 area %
same,18F-DCFPyL,"256 mCi/mL in ethanol, 100 mg/mL pH 2.0 ascorbic acid in collection vial and HLB wash, T = 2.5 h",98.71 area %
same,18F-DCFPyL,"256 mCi/mL in ethanol, 100 mg/mL pH 2.0 ascorbic acid in collection vial and HLB wash, T = 3.0 h",98.46 area %
same,18F-DCFPyL,"256 mCi/mL in ethanol, 100 mg/mL pH 2.0 ascorbic acid in collection vial and HLB wash, T = 3.5 h",97.96 area %
same,18F-DCFPyL,"256 mCi/mL in ethanol, 100 mg/mL pH 2.0 ascorbic acid in collection vial and HLB wash, T = 4.0 h",97.95 area %
same,RCP,"4 hours, 5 mg/mL ascorbate pH 6 FPV prefill and 6 mg/mL pH 6 ascorbate as delivery solution",98%
same,RCP,"4 hours, 10 mg/mL pH 6 ascorbate in collection vial and 5 mg/mL pH 6 ascorbic acid in final product vial",99%
same,% RCP,"10 hours, 3.3 mg/mL ascorbic acid in FPV, 10 mg/mL pH 2 in collection vial",97%
same,RCP,"10 hours, 5 mg/mL, pH 6 ascorbate in the final product",96%
same,% RCP,"10 hours, 5.6 mg/mL ascorbic acid in FPV, 10 mg/mL pH 2 in collection vial",98%
same,% RCP,"10 hours, 7.8 mg/mL ascorbic acid in FPV, 10 mg/mL pH 2 in collection vial",97%
same,RCP,"10 hours, pH 2 ascorbate in collection vial, 5 mg/mL ascorbate pH 6 in FPV",98%
same,% RCP,"10 hours, pH 4.5",98%
same,% RCP,"10 hours, pH 5.5",97%
same,% RCP,"10 hours, pH 7.0",97%
same,18F-DCFPyL (% RCP),[13],100.00%
same,Free F-18,[13],0.00%
same,18F-DCFPyL (% RCP),[14],100.00%
same,Free F-18,[14],0.00%
same,18F-DCFPyL (% RCP),[15],99.68%
same,Free F-18,[15],0.32%
same,Free F-18,"T = 0, 1 mg/mL sodium ascorbate, 20% ethanol, 111.5 mCi/mL at EOS",0.57%
same,18F-DCFPyL (% RCP),[16],100.00%
same,Free F-18,[16],0.00%
same,Free F-18,"T = 0, 20 mg/mL sodium citrate, 20% ethanol, 104.8 mCi/mL at EOS",10.22%
same,RT 3.4 radioactive impurity,[17],<MPA
same,RT 3.7 radioactive impurity,[17],<MPA
same,18F-DCFPyL (% RCP),[18],100.00%
same,Free F-18,[18],0.00%
same,RT 4.8 radioactive impurity,"T = 0, 50 mg/mL ascorbic acid pH 5.8, 20% ethanol, 139.7 mCi/mL at EOS, MPA = 0.25% of main peak",<MPA
same,18F-DCFPyL (RCP),[19],99.7% and 99.73%
same,Free 18F,[19],< LLQ
same,RT 5.0 radioactive impurity,[19],0.27%
same,18F-DCFPyL (RCP),"T = 0 hr, 50 mg/mL ascorbic acid pH 5.8 in final product vial, 20% ethanol, 110 mCi/mL at EOS, listed as [^18F]DCFPYL",99.7%
same,18F-DCFPyL (RCP),[20],99.7% and 99.71%
same,Free 18F,[20],0.29%
same,18F-DCFPyL (RCP),"T = 0 hr, 100 mg/mL ascorbic acid pH 2.0, 256 mCi/mL at EOS, listed as [^18F]DCFPYL",99.7%
same,18F-DCFPyL (RCP),[21],99.31%
same,Free F-18,[21],0.23%
same,RT 5.0 radioactive impurity,[21],0.46%
same,18F-DCFPyL (RCP),[22],98.75%
same,Free F-18,[22],0.91%
same,RT 5.0 radioactive impurity,[22],0.34%
same,18F-DCFPyL (RCP),[23],97.56%
same,Free F-18,[23],2.10%
same,RT 5.0 radioactive impurity,[23],0.34%
same,18F-DCFPyL (RCP),[24],98.37%
same,Free F-18,[24],1.63%
same,18F-DCFPyL (RCP),[25],94% and 94.17%
same,Free F-18,[25],4.68%
same,RT 5.0 radioactive impurity,[25],0.50%
same,RT 5.9 radioactive impurity,[25],0.64%
same,18F-DCFPyL (RCP),"T = 0 hr, control without ascorbic acid, 36% ethanol in saline, 147 mCi/mL at EOS, listed as [^18F]DCFPYL",94%
same,Free F-18,"T = 0.5, 5 mg/mL sodium ascorbate, 20% ethanol, 114.6 mCi/mL at EOS",0.39%
same,18F-DCFPyL (% RCP),[26],100.00%
same,Free F-18,[26],0.00%
same,18F-DCFPyL (% RCP),[27],99.75%
same,Free F-18,[27],0.25%
same,18F-DCFPyL (% RCP),[28],99.72%
same,Free F-18,[28],0.28%
